Measured values as given in ChEMBL document CHEMBL3132823, “Novel radioiodinated 1,3,4-oxadiazole derivatives with improved in vivo properties for SPECT imaging of -amyloid plaques” (Medchemcomm, 2014).
Active and inactive are the calls of the source. The rule behind the calls is not given here.

Legend:
Brain [1] = experiment: Biodistribution in iv dosed ddY mouse brain measured per gram of tissue after 60 mins by automatic gamma counting; type: ADME, organism-based; conditions: in vivo, 1 h
Stomach [2] = experiment: Biodistribution in iv dosed ddY mouse stomach measured per organ after 60 mins by automatic gamma counting; type: ADME, organism-based; conditions: in vivo, 1 h
Heart [3] = experiment: Biodistribution in iv dosed ddY mouse heart measured per gram of tissue after 60 mins by automatic gamma counting; type: ADME, organism-based; conditions: in vivo, 1 h
Pancreas [4] = experiment: Biodistribution in iv dosed ddY mouse pancreas measured per gram of tissue after 60 mins by automatic gamma counting; type: ADME, organism-based; conditions: in vivo, 1 h
Blood [5] = experiment: Biodistribution in iv dosed ddY mouse blood measured per gram of tissue after 2 mins by automatic gamma counting; type: ADME, organism-based; conditions: in vivo
Liver [6] = experiment: Biodistribution in iv dosed ddY mouse liver measured per gram of tissue after 2 mins by automatic gamma counting; type: ADME, organism-based; conditions: in vivo
Kidney [7] = experiment: Biodistribution in iv dosed ddY mouse kidney measured per gram of tissue after 2 mins by automatic gamma counting; type: ADME, organism-based; conditions: in vivo
Intestine [8] = experiment: Biodistribution in iv dosed ddY mouse intestine measured per gram of tissue after 2 mins by automatic gamma counting; type: ADME, organism-based; conditions: in vivo
Spleen [9] = experiment: Biodistribution in iv dosed ddY mouse spleen measured per gram of tissue after 2 mins by automatic gamma counting; type: ADME, organism-based; conditions: in vivo
Pancreas [10] = experiment: Biodistribution in iv dosed ddY mouse pancreas measured per gram of tissue after 2 mins by automatic gamma counting; type: ADME, organism-based; conditions: in vivo
Heart [11] = experiment: Biodistribution in iv dosed ddY mouse heart measured per gram of tissue after 2 mins by automatic gamma counting; type: ADME, organism-based; conditions: in vivo
Stomach [12] = experiment: Biodistribution in iv dosed ddY mouse stomach measured per organ after 2 mins by automatic gamma counting; type: ADME, organism-based; conditions: in vivo
Brain [13] = experiment: Biodistribution in iv dosed ddY mouse brain measured per gram of tissue after 2 mins by automatic gamma counting; type: ADME, organism-based; conditions: in vivo
Blood [14] = experiment: Biodistribution in iv dosed ddY mouse blood measured per gram of tissue after 10 mins by automatic gamma counting; type: ADME, organism-based; conditions: in vivo
Liver [15] = experiment: Biodistribution in iv dosed ddY mouse liver measured per gram of tissue after 10 mins by automatic gamma counting; type: ADME, organism-based; conditions: in vivo
Kidney [16] = experiment: Biodistribution in iv dosed ddY mouse kidney measured per gram of tissue after 10 mins by automatic gamma counting; type: ADME, organism-based; conditions: in vivo
Intestine [17] = experiment: Biodistribution in iv dosed ddY mouse intestine measured per gram of tissue after 10 mins by automatic gamma counting; type: ADME, organism-based; conditions: in vivo
Spleen [18] = experiment: Biodistribution in iv dosed ddY mouse spleen measured per gram of tissue after 10 mins by automatic gamma counting; type: ADME, organism-based; conditions: in vivo
Pancreas [19] = experiment: Biodistribution in iv dosed ddY mouse pancreas measured per gram of tissue after 10 mins by automatic gamma counting; type: ADME, organism-based; conditions: in vivo
Heart [20] = experiment: Biodistribution in iv dosed ddY mouse heart measured per gram of tissue after 10 mins by automatic gamma counting; type: ADME, organism-based; conditions: in vivo
Stomach [21] = experiment: Biodistribution in iv dosed ddY mouse stomach measured per organ after 10 mins by automatic gamma counting; type: ADME, organism-based; conditions: in vivo
Brain [22] = experiment: Biodistribution in iv dosed ddY mouse brain measured per gram of tissue after 10 mins by automatic gamma counting; type: ADME, organism-based; conditions: in vivo
Blood [23] = experiment: Biodistribution in iv dosed ddY mouse blood measured per gram of tissue after 30 mins by automatic gamma counting; type: ADME, organism-based; conditions: in vivo, 0.5 h
Liver [24] = experiment: Biodistribution in iv dosed ddY mouse liver measured per gram of tissue after 30 mins by automatic gamma counting; type: ADME, organism-based; conditions: in vivo, 0.5 h
Kidney [25] = experiment: Biodistribution in iv dosed ddY mouse kidney measured per gram of tissue after 30 mins by automatic gamma counting; type: ADME, organism-based; conditions: in vivo, 0.5 h
Intestine [26] = experiment: Biodistribution in iv dosed ddY mouse intestine measured per gram of tissue after 30 mins by automatic gamma counting; type: ADME, organism-based; conditions: in vivo, 0.5 h
Spleen [27] = experiment: Biodistribution in iv dosed ddY mouse spleen measured per gram of tissue after 30 mins by automatic gamma counting; type: ADME, organism-based; conditions: in vivo, 0.5 h
Pancreas [28] = experiment: Biodistribution in iv dosed ddY mouse pancreas measured per gram of tissue after 30 mins by automatic gamma counting; type: ADME, organism-based; conditions: in vivo, 0.5 h
Heart [29] = experiment: Biodistribution in iv dosed ddY mouse heart measured per gram of tissue after 30 mins by automatic gamma counting; type: ADME, organism-based; conditions: in vivo, 0.5 h
Stomach [30] = experiment: Biodistribution in iv dosed ddY mouse stomach measured per organ after 30 mins by automatic gamma counting; type: ADME, organism-based; conditions: in vivo, 0.5 h
Brain [31] = experiment: Biodistribution in iv dosed ddY mouse brain measured per gram of tissue after 30 mins by automatic gamma counting; type: ADME, organism-based; conditions: in vivo, 0.5 h
Blood [32] = experiment: Biodistribution in iv dosed ddY mouse blood measured per gram of tissue after 60 mins by automatic gamma counting; type: ADME, organism-based; conditions: in vivo, 1 h
Liver [33] = experiment: Biodistribution in iv dosed ddY mouse liver measured per gram of tissue after 60 mins by automatic gamma counting; type: ADME, organism-based; conditions: in vivo, 1 h
Kidney [34] = experiment: Biodistribution in iv dosed ddY mouse kidney measured per gram of tissue after 60 mins by automatic gamma counting; type: ADME, organism-based; conditions: in vivo, 1 h
Intestine [35] = experiment: Biodistribution in iv dosed ddY mouse intestine measured per gram of tissue after 60 mins by automatic gamma counting; type: ADME, organism-based; conditions: in vivo, 1 h
Spleen [36] = experiment: Biodistribution in iv dosed ddY mouse spleen measured per gram of tissue after 60 mins by automatic gamma counting; type: ADME, organism-based; conditions: in vivo, 1 h
Plasma = experiment: Metabolic stability in mouse plasma at 11 kBq after 1 hr at 37 degC by HPLC analysis; type: ADME, cell-free
Mus musculus [37] = experiment: In vivo binding affinity to amyloid beta plaques in iv dosed wild type mouse brain at 44 to 48 MBq after 20 to 80 mins by SPECT study; type: functional, organism-based; conditions: 44 to 48 M, tested as the 125I-labelled form
Mus musculus [38] = experiment: In vivo binding affinity to amyloid beta plaques in iv dosed Tg2576 transgenic mouse brain at 44 to 48 MBq after 20 to 80 mins by SPECT study; type: functional, organism-based; conditions: 44 to 48 M, tested as the 125I-labelled form
Mus musculus [39] = experiment: In vivo binding affinity to amyloid beta plaques in iv dosed wild type mouse brain after 70 mins by autoradiography analysis; type: functional, organism-based; conditions: tested as the 125I-labelled form
Mus musculus [40] = experiment: In vivo binding affinity to amyloid beta plaques in iv dosed Tg2576 transgenic mouse brain after 70 mins by autoradiography analysis; type: functional, organism-based; conditions: tested as the 125I-labelled form
[41] = Octanol-phosphate buffer partition coefficient, log p of the compound at pH 7.4 by automatic gamma counting; type: physicochemical
[42] = molecular target: T1, Amyloid-beta precursor protein (Homo sapiens, UniProt P05067); experiment: Inhibition of [125I]IMPY binding to amyloid beta (1 to 42) aggregates (unknown origin) by gamma counting
T1 sequence (P05067 whole entry): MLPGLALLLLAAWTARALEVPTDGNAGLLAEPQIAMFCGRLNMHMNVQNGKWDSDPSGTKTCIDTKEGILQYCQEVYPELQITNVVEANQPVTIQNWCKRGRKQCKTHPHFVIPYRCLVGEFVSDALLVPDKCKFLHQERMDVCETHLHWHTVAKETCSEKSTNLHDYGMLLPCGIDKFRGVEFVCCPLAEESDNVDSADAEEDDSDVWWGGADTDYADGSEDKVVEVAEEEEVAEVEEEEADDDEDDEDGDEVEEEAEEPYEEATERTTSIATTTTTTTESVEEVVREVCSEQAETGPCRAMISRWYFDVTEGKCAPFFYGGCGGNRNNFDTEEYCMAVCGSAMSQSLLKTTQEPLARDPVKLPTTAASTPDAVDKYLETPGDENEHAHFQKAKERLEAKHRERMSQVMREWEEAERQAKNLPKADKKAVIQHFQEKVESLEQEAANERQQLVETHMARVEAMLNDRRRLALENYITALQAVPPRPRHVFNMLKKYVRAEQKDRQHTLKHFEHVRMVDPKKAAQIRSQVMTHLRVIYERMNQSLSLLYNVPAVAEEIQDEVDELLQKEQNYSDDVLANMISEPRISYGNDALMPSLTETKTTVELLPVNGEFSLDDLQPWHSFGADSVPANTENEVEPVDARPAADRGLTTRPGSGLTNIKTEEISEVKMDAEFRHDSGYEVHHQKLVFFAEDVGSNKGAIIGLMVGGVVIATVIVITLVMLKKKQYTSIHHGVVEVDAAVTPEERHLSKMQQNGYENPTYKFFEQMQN

[43] = molecular target: T1, Amyloid-beta precursor protein; experiment: In vitro binding affinity to amyloid beta plaques in human AD brain at 148 kBq after 1 hr incubation at room temperature by autoradiography analysis; conditions: tested as the 125I-labelled form

## CN(C)c1ccc(-c2nnc(-c3ccc([125I])cc3)o2)cn1
Brain [1]
  Drug uptake: 0.4 %ID
Stomach [2]
  Drug uptake: 10.24 %ID
Heart [3]
  Drug uptake: 1.13 %ID
Pancreas [4]
  Drug uptake: 1.27 %ID
Blood [5]
  Drug uptake: 1.93 %ID
Liver [6]
  Drug uptake: 6.41 %ID
Kidney [7]
  Drug uptake: 6.43 %ID
Intestine [8]
  Drug uptake: 1.5 %ID
Spleen [9]
  Drug uptake: 2.97 %ID
Pancreas [10]
  Drug uptake: 4.92 %ID
Heart [11]
  Drug uptake: 4.48 %ID
Stomach [12]
  Drug uptake: 0.91 %ID
Brain [13]
  Drug uptake: 3.88 %ID
Blood [14]
  Drug uptake: 2.33 %ID
Liver [15]
  Drug uptake: 7.44 %ID
Kidney [16]
  Drug uptake: 4.61 %ID
Intestine [17]
  Drug uptake: 3.38 %ID
Spleen [18]
  Drug uptake: 3.01 %ID
Pancreas [19]
  Drug uptake: 3.07 %ID
Heart [20]
  Drug uptake: 2.15 %ID
Stomach [21]
  Drug uptake: 2.49 %ID
Brain [22]
  Drug uptake: 3.03 %ID
Blood [23]
  Drug uptake: 1.97 %ID
Liver [24]
  Drug uptake: 3.86 %ID
Kidney [25]
  Drug uptake: 2.96 %ID
Intestine [26]
  Drug uptake: 5.29 %ID
Spleen [27]
  Drug uptake: 1.72 %ID
Pancreas [28]
  Drug uptake: 1.67 %ID
Heart [29]
  Drug uptake: 1.31 %ID
Stomach [30]
  Drug uptake: 7.25 %ID
Brain [31]
  Drug uptake: 1.05 %ID
Blood [32]
  Drug uptake: 1.79 %ID
Liver [33]
  Drug uptake: 2.61 %ID
Kidney [34]
  Drug uptake: 2.99 %ID
Intestine [35]
  Drug uptake: 8.57 %ID
Spleen [36]
  Drug uptake: 1.74 %ID
Plasma
  Stability: Stable

## CN(C)c1ccc(-c2nnc(-c3cccc(I)c3)o2)cn1
Mus musculus [37]
  Activity: inactive
Mus musculus [38]
  Activity: Active
Mus musculus [39]
  Activity: inactive
Mus musculus [40]
  Activity: Active
[41]
  logD: 2.06
[42]
  Ki: 13.6 nM
  inhibition: Dose-dependent effect
[43]
  Activity: Active

## CN(C)c1ccc(-c2nnc(-c3ccc(I)cc3)o2)cc1
[42]
  Ki: 3.91 nM

## CN(C)c1ccc(-c2nnc(-c3ccc(I)cc3)o2)cn1
Mus musculus [39]
  Activity: inactive
Mus musculus [40]
  Activity: Active
[41]
  logD: 2.06
[42]
  Ki: 24.8 nM
  inhibition: Dose-dependent effect
[43]
  Activity: Active

## CN(C)c1ccc(-c2nnc(-c3cccc([125I])c3)o2)cn1
Brain [1]
  Drug uptake: 0.48 %ID
Stomach [2]
  Drug uptake: 7.9 %ID
Heart [3]
  Drug uptake: 1.14 %ID
Pancreas [4]
  Drug uptake: 1.28 %ID
Blood [5]
  Drug uptake: 1.82 %ID
Liver [6]
  Drug uptake: 6.06 %ID
Kidney [7]
  Drug uptake: 8.85 %ID
Intestine [8]
  Drug uptake: 2.28 %ID
Spleen [9]
  Drug uptake: 2.67 %ID
Pancreas [10]
  Drug uptake: 5.15 %ID
Heart [11]
  Drug uptake: 5.76 %ID
Stomach [12]
  Drug uptake: 0.86 %ID
Brain [13]
  Drug uptake: 4.12 %ID
Blood [14]
  Drug uptake: 1.65 %ID
Liver [15]
  Drug uptake: 11.5 %ID
Kidney [16]
  Drug uptake: 4.59 %ID
Intestine [17]
  Drug uptake: 4.08 %ID
Spleen [18]
  Drug uptake: 1.74 %ID
Pancreas [19]
  Drug uptake: 2.46 %ID
Heart [20]
  Drug uptake: 2.39 %ID
Stomach [21]
  Drug uptake: 2.01 %ID
Brain [22]
  Drug uptake: 2.63 %ID
Blood [23]
  Drug uptake: 1.67 %ID
Liver [24]
  Drug uptake: 8.42 %ID
Kidney [25]
  Drug uptake: 2.95 %ID
Intestine [26]
  Drug uptake: 8.77 %ID
Spleen [27]
  Drug uptake: 1.39 %ID
Pancreas [28]
  Drug uptake: 1.56 %ID
Heart [29]
  Drug uptake: 1.27 %ID
Stomach [30]
  Drug uptake: 5.67 %ID
Brain [31]
  Drug uptake: 0.87 %ID
Blood [32]
  Drug uptake: 1.76 %ID
Liver [33]
  Drug uptake: 5.94 %ID
Kidney [34]
  Drug uptake: 2.3 %ID
Intestine [35]
  Drug uptake: 12.08 %ID
Spleen [36]
  Drug uptake: 1.21 %ID
Plasma
  Stability: Stable
